“Also recorded” adds a separate entry of the source.
Columns and labels:
[1] = system: p53 null (−/−) MEFs; assay: Cell viability of p53-/- mouse embryonic fibroblasts; conditions: Fibroblast, read-out: reduction of cell viability
Method: Cell culture and luciferase assay. A549 (non-small cell lung cancer), HT-1080 (fibrosarcoma), and MCF-7 (breast cancer) cells were cultured in the appropriate media with 10% FCS supplemented with L-glutamine, penicillin, and streptomycin. p53 wild-type (+/+) and null (−/−) Mouse Embryonic Fibroblasts (MEFs) transfected with the E1A/Ras were grown in DMEM containing 15% FCS supplemented with L-glutamine, penicillin, and streptomycin. Transfections were done on MCF-7 cells using the lipofectamine Plus reagent. At 24 hours after transfection, MCF-7 cells were left untreated or treated with triptolide (20 ng/ml) or doxorubicin (100 nM) for 4, 8, and 16 hours and cells were collected for luciferase assay. Luciferase activity was measured in samples with equal protein concentration with a Luminometer (Analytical Luminescence Laboratory, San Diego, Calif.).
Cell viability assay. Cell viability was measured by an 3-(4,5-dimethylthiazol-2-yl)-2,5-diphenyltetrazolium bromide (MTT) assay as described above. Untreated or cells treated with triptolide and/or doxorubicin were harvested at the indicated times followed by the addition of MTT to the cells in a 96-well plate. Cells were solubilized with […] acidified with 0.1N HCl. The 96-plate was read at a wavelength of 590 nm on an iEMS Labsystems plate reader.

[2] = system: HT1080 cells; assay: Cell viability by trypan blue exclusion, HT1080 cells (Example 5)
Method: Cell Viability Assay. HT-1080 cells were seeded into 6-well plates at 2×10^5 per well the day before the treatment. For the inducible expression of exogenous p21 and LacZ, the stable transfectants were cultured in the presence of 5 μM ponasterone A for 16 h. […] The cells were untreated or treated with doxorubicin, triptolide, or the combination of both at indicated dosages for 8 h at 37° C. Subsequently, the medium was replaced with new media plus 5 μM ponasterone A. After 16 h incubation at 37° C., the number of viable cells within the same fields were determined by trypan blue exclusion with a 2% trypan blue solution.

[3] = system: p53 translation; assay: p53 translation by 35S methionine metabolic labeling of HT1080 cells; type: cell-based, human; conditions: HT1080, triptolide 20 ng/ml pretreatment 6 h
Method: Metabolic Labeling of HT1080 Cells. Cells were grown to 80% confluence followed by pretreatment with triptolide (20 ng/ml) for 6 h in the appropriate medium. Cells were washed twice with short term labeling medium (RPMI with 5% dialyzed fetal calf serum supplemented with L-glutamine, penicillin, and streptomycin). To deplete intracellular pools of methionine, short term labeling medium was added for 15 min at 37° C. and then replaced by short term labeling medium containing 0.1 mCi/ml [35S]methionine (Amersham Pharmacia Biotech). Cells were labeled for 30 min at 37° C. and washed with ice-cold PBS before harvesting for immunoprecipitation. The cells were lysed using RIPA buffer supplemented with protease inhibitors and immunoprecipitated using an agarose-conjugated p53 mAb (Ab-6, Oncogene Research Products) followed by 10% SDS-PAGE. The intensity of labeled p53 protein was measured by NIH Image 1.62.

[4] = system: H23 tumor cells; assay: Nude mouse xenograft, prevention of H23 tumor formation; type: in vivo, nude mice
Method: Nude mouse xenograft model. […] Tumor cells were grown and harvested as described above.
PG490-88 prevents human tumor development in nude mice. The results reported above show cytotoxicity of PG490 on tumor cells in vitro. To extend these studies to an in vivo setting using human tumor cell xenografts, PG490-88 was used, a more easily administered, water soluble prodrug of PG490. H23 tumor cells were implanted intradermally in nude mice and the animals were left untreated or were injected IP daily with PG490-88 starting at the time of implantation. Tumors arose in 5/5 of the untreated mice but no tumors were observed after 5 or 7 weeks of dosing with PG490-88 at doses ranging from 0.25 to 0.75 mg/kg/day (Table 1). PG490-88 treatment was stopped after week 5 in 3 mice per group and was continued for an additional 2 weeks in 2 mice per group. A visible tumor arose during the sixth week in one animal in each group in which PG490-88 dosed at 0.5 mg/kg/day or less was stopped but no more visible tumors appeared in these groups after week 6 (Table 1).
Nude mice were implanted with H23 tumor cells (day 0). Mice were left untreated, or were injected IP with PG490-88 daily from the day of tumor cell implantation for 5 consecutive days per week. PG490-88 was administered for 5 weeks. The untreated group consisted of 5 mice. Three mice in each of the treatment groups received PG490-88 for 5 weeks, and 2 mice in each of these groups were given PG490-88 for 2 additional weeks (7 weeks total). The tumor appeared only in mice in which treatment had been stopped after 5 weeks.

[5] = system: HT-29 human colon cancer cell line tumors; assay: Nude mouse xenograft, established HT-29 colon cancer tumors; type: in vivo, nude mice
Method: HT-29 tumor cells grown in tissue culture were harvested and implanted intradermally on the backs of nude mice. Tumor size was monitored by measuring the dimensions of each tumor and calculating tumor volume with a formula. […] PG490-88 treatment at 0.25 mg/kg was administered daily i.p. 5 days per week for 2 weeks. Navelbine at 10 mg/kg was given i.v. on days 0 and 7. Mice in the combination treatment group received PG490-88 i.p. and Navelbine i.v. at the appropriate times. The treatments were given to mice at 100 μl per 10 g of mouse body weight. Tumor dimensions were measured periodically for calculation of tumor volumes. […] The data are presented as mean percent change in tumor volume from day 0 for each treatment group. Toxicity of the treatment was monitored by weighing the mice daily 5 days per week. In FIG. 8, a comparison is provided for tumor volumes on Days 0 and 14. Tumor dimensions were measured periodically for calculation of tumor volumes, and the final determinations were made on day 14.

| Compound | cytotoxicity at 0.005 µg/mL [1] [%] | cytotoxicity at 0.01 µg/mL [1] [%] | effect on cell death by carboplatinum ([2]; A549 and HT1080 cells) | cytotoxicity at 0.02 µg/mL ([2]; Homo sapiens, HT-1080, 24 h, read-out: reduction of HT1080 cell viability) [%] | increase in p53 translation [3] [fold] | Number of mice in group with a tumor ([4]; PG490-88 0.25 mg/kg/day IP, Week 5) | Number of mice in group with a tumor ([4]; PG490-88 0.25 mg/kg/day IP, Week 6) | Number of mice in group with a tumor ([4]; PG490-88 0.25 mg/kg/day IP, Week 10) | Number of mice in group with a tumor ([4]; PG490-88 0.375 mg/kg/day IP, Week 5) | Number of mice in group with a tumor ([4]; PG490-88 0.375 mg/kg/day IP, Week 6) | Number of mice in group with a tumor ([4]; PG490-88 0.375 mg/kg/day IP, Week 10) | Number of mice in group with a tumor ([4]; PG490-88 0.5 mg/kg/day IP, Week 5) | Number of mice in group with a tumor ([4]; PG490-88 0.5 mg/kg/day IP, Week 6) | Number of mice in group with a tumor ([4]; PG490-88 0.5 mg/kg/day IP, Week 10) | Number of mice in group with a tumor ([4]; PG490-88 0.75 mg/kg/day IP, Week 5) | Number of mice in group with a tumor ([4]; PG490-88 0.75 mg/kg/day IP, Week 6) | Number of mice in group with a tumor ([4]; PG490-88 0.75 mg/kg/day IP, Week 10) | H23 tumor formation ([4]; PG490-88 0.75 mg/kg/day, 10 weeks of observation, sodium salt, 0.75 mg/kg/day) | increase in tumor volume from day 0 by day 14 ([5]; PG490-88 0.25 mg/kg i.p. 5 days per week for 2 weeks, Navelbine 10 mg/kg i.v. days 0 and 7) [%] | Day 0 Tumor Volume (mm^3) Mean ([5]; baseline at grouping, before treatment) [mm^3] |
| --- | --- | --- | --- | --- | --- | --- | --- | --- | --- | --- | --- | --- | --- | --- | --- | --- | --- | --- | --- | --- |
| CC(C)[C@]12O[C@H]1[C@@H]1O[C@]13[C@]1(O[C@H]1C[C@H]1C4=C(CC[C@@]13C)C(=O)OC4)[C@@H]2O [PG490, triptolide] | 15 | 50 | enhanced cell death | 84 | 4.9 | – | – | – | – | – | – | – | – | – | – | – | – | – | – | – |
| CC(C)[C@]12O[C@H]1[C@@H]1O[C@]13[C@]1(O[C@H]1C[C@H]1C4=C(CC[C@@]13C)C(=O)OC4)[C@@H]2OC(=O)CCC(=O)[O-].[Na+] [PG490-88, 14-succinyl triptolide sodium salt] | – | – | – | – | – | 0/5 | 1/5 | 1/5 | 0/5 | 1/5 | 1/5 | 0/5 | 1/5 | 1/5 | 0/5 | 0/5 | 0/5 | No visible tumors developed in any of the mice; also recorded: completely prevented | 238 | 109 |

From patent US6599499B1, “Uses of diterpenoid triepoxides as an anti-proliferative agent” (priority 1999, dated 2003)
